The numbers were not newly measured in patent publication US20080114028A1, “Process for preparing polymorphic forms of solifenacin succinate” (priority 2006, published 2008), which cites them from elsewhere.

For this data set the following is noted: at room temperature in water, glacial acetic acid, dimethylsulfoxide, and methanol.

Consider `O=C(O[C@H]1CN2CCC1CC2)N1CCc2ccccc2[C@@H]1c1ccccc1` [Solifenacin succinate, solifenacin succinate], for which the solubility entry was “freely soluble”.
